Measured values reported in paper PMC12775434, “Ultra-large virtual screening unveils potent agonists of the neuromodulatory orphan receptor GPR139” (Nature Communications, 2025).
“And” between values parts separate entries of the source, which are not always exact repeats. Equal values may be shown once.

Biological target: T1, GPR139 (Gq activation) (Homo sapiens, UniProt Q6DWJ6)
T1 construct: expressed in transfected cells; host or cells: HEK293A (transient, Lipofectamine 2000)
T1 sequence (Q6DWJ6 1-353): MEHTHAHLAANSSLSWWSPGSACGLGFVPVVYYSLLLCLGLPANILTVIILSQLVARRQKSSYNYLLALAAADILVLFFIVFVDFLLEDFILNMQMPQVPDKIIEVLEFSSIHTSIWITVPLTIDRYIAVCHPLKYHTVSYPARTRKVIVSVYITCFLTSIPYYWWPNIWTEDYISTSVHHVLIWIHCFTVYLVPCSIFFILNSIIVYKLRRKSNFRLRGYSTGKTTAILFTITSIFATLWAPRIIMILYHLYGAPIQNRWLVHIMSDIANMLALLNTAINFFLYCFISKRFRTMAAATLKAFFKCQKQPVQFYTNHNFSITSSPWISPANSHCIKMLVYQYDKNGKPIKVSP
Test: BRET G protein activation (dissociation) assay, Gq, HEK293A
Format: cell-based
Conditions: for Emax: HEK293-A, normalized to JNJ-63533054 (JNJ(S)); for EC50: Supplementary Table 6; for G protein activation, Gq: individual replicates
Description: Primary screening and pharmacological characterization of compounds were performed using a CHO-K1 cell line that stably expresses human GPR139 (GPR139-CHOk1). The GPR139-CHOk1 cell line was kindly provided by H. Lundbeck A/S, Denmark[24]. GPR139-CHOk1 cells were grown in Ham’s F-12 Kaighn’s Modification Medium (ThermoFisher #21127030) supplemented with 10% dialyzed fetal bovine serum (US origin, ThermoFisher #26400044), 100 units/mL Penicillin-Streptomycin (ThermoFisher #15140122), and 1 mg/mL Geneticin (ThermoFisher #11811031). […] M1R-CHOk1 cells were purchased from The Missouri S&T cDNA Resource Center (#CEM100TN00). M1R-CHOk1 cells were grown in Ham’s F12 Medium (ThermoFisher #21765029) supplemented with 10% fetal bovine serum (Brazilian origin, ThermoFisher #10270106), 100 units/mL Penicillin-Streptomycin, and 0.25 mg/mL Geneticin. HEK293A cells transiently transfected with GPR139 were used for additional pharmacological assessment of signaling pathways activated by GPR139. HEK239A cells were generously provided by Dr. Asuka Inoue, Tohoku University, Japan. HEK293A cells were grown in Dulbecco’s Modified Eagle Medium (ThermoFisher #31966047) supplemented with 10% dialyzed fetal bovine serum and 100 units/mL Penicillin-Streptomycin. Cell lines were maintained at 37 °C in humidified incubator equilibrated with 5% CO2.
The G protein dissociation assay developed by the lab of Kirill A. Martemyanov was used to measure the coupling of multiple G proteins by GPR139[57]. The assay was performed as described previously with minor modifications. HEK293A cells were reverse transfected 20–24 h prior to assay. 50,000 cells were plated in each well of white opaque tissue culture treated 96-well plates (PerkinElmer #6005680) previously coated with poly-D-lysine. Transfection solutions were prepared as described, and 10 µL transfection solution was mixed with 100 µL cells in each well. The cells in each well were transfected with 18.9 ng GPR139, 6.3 ng Venus 1-155 Gγ2, 6.3 ng Venus 159-239 Gβ1, 6.3 ng masGRK3ct-NanoLuc and 12.6 ng Gαi2, 12.6 ng Gαi3, 12.6 ng GαoA, 12.6 ng Gαq or 25.2 ng Gα12 using 375 nL Lipofectamine 2000 Transfection Reagent. Transfections with Gαq and Gα12 contained 6.3 ng DNA of the active subunit S1 of pertussis toxin (PTX-S1). Each transfection was normalized to 150 ng total DNA with pcDNA3.1. The BRET biosensors were a kind gift from the Martemyanov lab. On the day of the experiment the cells were washed with HEPES buffer. Test compounds were diluted in HEPES buffer from DMSO stocks (final DMSO concentration of maximally 0.3%). NanoLuc Luciferase substrate NanoGlo—furimazine (Promega #N1120) was diluted 1000-fold (final) in HEPES buffer. NanoGlo and test compounds were added, and measurements were performed after 10 s for Gi3, 15 s for Gi2 and GoA, 20 s for Gq, and 90 s for G12—the timepoint where maximal signal occurred with each G protein, ensuring proper determination of the potency for the G protein coupling. Simultaneous dual emission was measured at 535 nm and 475 nm on LUMIstar Omega Microplate Reader (BMG Labtech) at room temperature. The BRET ratio of 535 nm/475 nm (Venus/NanoLuc), reflecting the dissociation of the G protein heterotrimer, was used to determine the G protein activation. The basal BRET ratio obtained with buffer condition was subtracted from the absolute BRET ratio at a given test compound concentration, and the responses were normalized to the one obtained with 10 µM JNJ-63533054 for the activation of Gi2.
Pharmacological data and statistical analyses were performed in GraphPad Prism v9–10 (Graphpad Software Inc., San Diego, CA), which are also specifically described in the figure and table legends. […]

SMILES | Emax | EC50 | G protein activation, Gq (log [compound] M -4.5) | G protein activation, Gq (log [compound] M -5.0) | G protein activation, Gq (log [compound] M -5.5) | G protein activation, Gq (log [compound] M -6.0) | G protein activation, Gq (log [compound] M -6.5) | G protein activation, Gq (log [compound] M -7.0) | G protein activation, Gq (log [compound] M -7.5) | G protein activation, Gq (log [compound] M -8.0) | G protein activation, Gq (log [compound] M -4.5, listed as JNJ (S)) | G protein activation, Gq (log [compound] M -5.0, listed as JNJ (S)) | G protein activation, Gq (log [compound] M -5.5, listed as JNJ (S)) | G protein activation, Gq (log [compound] M -6.0, listed as JNJ (S)) | G protein activation, Gq (log [compound] M -6.5, listed as JNJ (S)) | G protein activation, Gq (log [compound] M -7.0, listed as JNJ (S)) | G protein activation, Gq (log [compound] M -7.5, listed as JNJ (S)) | G protein activation, Gq (log [compound] M -8.0, listed as JNJ (S))
Cc1cscc1-c1nc(CC(=O)N[C@H](C)c2ccccc2)no1 [1.1(R)] | 21 ± 3% | 2.51 µM | 17 % of JNJ-63533054 at Gi2 (2×) and 25 % of JNJ-63533054 at Gi2 | 16 % of JNJ-63533054 at Gi2 and 21 % of JNJ-63533054 at Gi2 and 15 % of JNJ-63533054 at Gi2 | 10 % of JNJ-63533054 at Gi2 and 12 % of JNJ-63533054 at Gi2 (2×) | 4.28 % of JNJ-63533054 at Gi2 and 5.63 % of JNJ-63533054 at Gi2 and 5 % of JNJ-63533054 at Gi2 | 0.0563 % of JNJ-63533054 at Gi2 and -0.806 % of JNJ-63533054 at Gi2 and 0.934 % of JNJ-63533054 at Gi2 | -1.52 % of JNJ-63533054 at Gi2 and -1.69 % of JNJ-63533054 at Gi2 and -0.279 % of JNJ-63533054 at Gi2 | -0.908 % of JNJ-63533054 at Gi2 and -3 % of JNJ-63533054 at Gi2 and -0.0719 % of JNJ-63533054 at Gi2 | -5.54 % of JNJ-63533054 at Gi2 and -3 % of JNJ-63533054 at Gi2 and 1.13 % of JNJ-63533054 at Gi2 | – | – | – | – | – | – | – | –
C[C@@H](NC(=O)CNC(=O)c1cccc(Cl)c1)c1ccccc1 [JNJ(R), reference compound] | 22 ± 8% | 10 µM | 17 % of JNJ-63533054 at Gi2 and 24 % of JNJ-63533054 at Gi2 and 7.59 % of JNJ-63533054 at Gi2 | 12 % of JNJ-63533054 at Gi2 and 15 % of JNJ-63533054 at Gi2 and 4 % of JNJ-63533054 at Gi2 | 8 % of JNJ-63533054 at Gi2 and 7 % of JNJ-63533054 at Gi2 and -2.15 % of JNJ-63533054 at Gi2 | 6.62 % of JNJ-63533054 at Gi2 and 3 % of JNJ-63533054 at Gi2 and -1.3 % of JNJ-63533054 at Gi2 | 3.64 % of JNJ-63533054 at Gi2 and 0.578 % of JNJ-63533054 at Gi2 and -0.535 % of JNJ-63533054 at Gi2 | 0.442 % of JNJ-63533054 at Gi2 and -1.25 % of JNJ-63533054 at Gi2 and -2 % of JNJ-63533054 at Gi2 | 0.442 % of JNJ-63533054 at Gi2 and 0.122 % of JNJ-63533054 at Gi2 and 2.16 % of JNJ-63533054 at Gi2 | -2 % of JNJ-63533054 at Gi2 and -0.213 % of JNJ-63533054 at Gi2 and 1.37 % of JNJ-63533054 at Gi2 | – | – | – | – | – | – | – | –
CC(NC(=O)CNC(=O)c1cccc(Cl)c1)c1ccccc1 (stereo not shown) [JNJ-63533054, reference compound] | 42 ± 3% | 0.158 µM | – | – | – | – | – | – | – | – | 40 % of JNJ-63533054 at Gi2 and 47 % of JNJ-63533054 at Gi2 and 36 % of JNJ-63533054 at Gi2 | 40 % of JNJ-63533054 at Gi2 and 47 % of JNJ-63533054 at Gi2 and 39 % of JNJ-63533054 at Gi2 | 42 % of JNJ-63533054 at Gi2 and 44 % of JNJ-63533054 at Gi2 and 32 % of JNJ-63533054 at Gi2 | 39 % of JNJ-63533054 at Gi2 and 42 % of JNJ-63533054 at Gi2 and 31 % of JNJ-63533054 at Gi2 | 29 % of JNJ-63533054 at Gi2 and 32 % of JNJ-63533054 at Gi2 and 23 % of JNJ-63533054 at Gi2 | 17 % of JNJ-63533054 at Gi2 (2×) and 9 % of JNJ-63533054 at Gi2 | 5.47 % of JNJ-63533054 at Gi2 and 7 % of JNJ-63533054 at Gi2 and 1.27 % of JNJ-63533054 at Gi2 | 1.82 % of JNJ-63533054 at Gi2 and 0.745 % of JNJ-63533054 at Gi2 and -0.2 % of JNJ-63533054 at Gi2
Cc1cscc1-c1nc(CC(=O)N[C@@H](C)c2ccccc2)no1 [1.1(S)] | 35 ± 3% | 0.2 µM | 35 % of JNJ-63533054 at Gi2 and 45 % of JNJ-63533054 at Gi2 and 30 % of JNJ-63533054 at Gi2 | 36 % of JNJ-63533054 at Gi2 and 38 % of JNJ-63533054 at Gi2 and 28 % of JNJ-63533054 at Gi2 | 32 % of JNJ-63533054 at Gi2 and 38 % of JNJ-63533054 at Gi2 and 27 % of JNJ-63533054 at Gi2 | 30 % of JNJ-63533054 at Gi2 and 34 % of JNJ-63533054 at Gi2 and 26 % of JNJ-63533054 at Gi2 | 21 % of JNJ-63533054 at Gi2 and 30 % of JNJ-63533054 at Gi2 and 16 % of JNJ-63533054 at Gi2 | 11 % of JNJ-63533054 at Gi2 and 15 % of JNJ-63533054 at Gi2 and 8 % of JNJ-63533054 at Gi2 | 2.21 % of JNJ-63533054 at Gi2 and 3.62 % of JNJ-63533054 at Gi2 and 4 % of JNJ-63533054 at Gi2 | -2.13 % of JNJ-63533054 at Gi2 and -0.806 % of JNJ-63533054 at Gi2 and 3.47 % of JNJ-63533054 at Gi2 | – | – | – | – | – | – | – | –
